# Patent US10112913B2, “Substituted [1,2,4]triazole and imidazole compounds as fungicides” (BASF SE, priority 2014, dated 2018)
# Tested on: Fusarium culmorum
# Test: Activity against root rot caused by Fusarium culmorum (Fusacu), microtiter test
# Type: cell-based
# Conditions: 31 ppm; Fusarium culmorum spore suspension; 18° C.; 405 nm, 7 days after inoculation
compound,measurement,value
CC(C)CC#Cc1ccc(C(O)(Cn2cncn2)C(C)(C)C)cc1 (stereo not shown) [I.C-2],growth (relative growth of the pathogen vs active compound-free control = 100%),0%
